Assay results taken from patent publication US11413360B2, “Dual mode radiotracer and—therapeutics” (priority 2017, dated 2022).
Like-named read-outs stand apart in the source and are kept apart here.

Experiments:
[1] = biological target: T1, Human Serum Albumin (Homo sapiens, UniProt P02768); experiment: Literature HSA binding of reference substances (Yamazaki et al.) for HSA-column calibration; settings: logarithmic K of human serum albumin binding
Experimental: The mobile phase (A: NH4OAc, 50 mM in water, pH 7 and B: isopropanol) was freshly prepared for each experiment and only used for one day. The column was kept at room temperature and each run was stopped after detection of the signal to reduce the acquisition time. All substances were dissolved in a 0.5 mg/ml concentration in 50% 2-propanol and 50% 50 mM pH 6.9 ammonium acetate buffer. […] All nine reference substances (see Table 1) were injected consecutively to establish a non-linear regression with OriginPro 2016G; see FIG. 1.
HSA literature value of human serum albumin binding in [%]; Log K HAS logarithmic K of human serum albumin binding.

[2] = biological target: T1, Human Serum Albumin; settings: literature value of human serum albumin binding; cited from earlier work
[3] = tested on: LNCaP cells; experiment: Internalization of radiolabelled ligands into LNCaP cells; assay type: cell-based; settings: 1 hour, % of reference ligand ([125I]I-BA)KuE
Experimental: Subsequent to the removal of the culture medium, the cells were washed once with 500 μL DMEM-F12 (5% BSA) and left to equilibrate for at least 15 min at 37° C. in 200 μL DMEM-F12 (5% BSA). Each well was treated with either 25 μL of either DMEM-F12 (5% BSA) or a 100 μM PMPA solution for blockade. […] The experiment was terminated by placing the 24-well plate on ice for 3 min and consecutive removal of the medium. Each well was rinsed with 250 μL HBSS and the fractions from these first two steps combined, representing the amount of free radioligand. Removal of surface bound activity was accomplished by incubation of the cells with 250 μL of ice-cold PMPA (10 μM in PBS) solution for 5 min and rinsed again with another 250 μL of ice-cold PBS. The internalized activity was determined by incubation of the cells in 250 μL 1 M NaOH and the combination with the fraction of a subsequent wash step with 250 μL 1.0 M NaOH. Each experiment (control and blockade) was performed in triplicate. Free, surface bound and internalized activity was quantified in a γ-counter. […] Data were corrected for non-specific internalization and normalized to the specific-internalization observed for the radioiodinated reference compound.

[4] = Octanol-water partition coefficient (log D) of radiolabelled ligands; assay type: physicochemical; settings: n = 6
Experimental: Approximately 1 MBq of the labelled tracer was dissolved in 1 mL of a 1:1 mixture (by volumes) of phosphate buffered saline (PBS, pH 7.4) and n-octanol in an Eppendorf tube. After vigorous mixing of the suspension for 3 minutes at room temperature, the vial was centrifuged at 15000 g for 3 minutes (Biofuge 15, Heraus Sepatech, Osterode, Germany) and 100 μL aliquots of both layers were measured in a gamma counter. The experiment was repeated at least six times.

[5] = biological target: T2, PSMA (Homo sapiens, UniProt Q04609); experiment: Determination of PSMA affinity (IC50), competition with ([125I]I-BA)KuE on LNCaP cells; assay type: binding; settings: ([125I]I-BA)KuE 0.2 nM
T2 construct: endogenous in cells; host or cells: LNCaP cells
T2 sequence (Q04609 whole entry): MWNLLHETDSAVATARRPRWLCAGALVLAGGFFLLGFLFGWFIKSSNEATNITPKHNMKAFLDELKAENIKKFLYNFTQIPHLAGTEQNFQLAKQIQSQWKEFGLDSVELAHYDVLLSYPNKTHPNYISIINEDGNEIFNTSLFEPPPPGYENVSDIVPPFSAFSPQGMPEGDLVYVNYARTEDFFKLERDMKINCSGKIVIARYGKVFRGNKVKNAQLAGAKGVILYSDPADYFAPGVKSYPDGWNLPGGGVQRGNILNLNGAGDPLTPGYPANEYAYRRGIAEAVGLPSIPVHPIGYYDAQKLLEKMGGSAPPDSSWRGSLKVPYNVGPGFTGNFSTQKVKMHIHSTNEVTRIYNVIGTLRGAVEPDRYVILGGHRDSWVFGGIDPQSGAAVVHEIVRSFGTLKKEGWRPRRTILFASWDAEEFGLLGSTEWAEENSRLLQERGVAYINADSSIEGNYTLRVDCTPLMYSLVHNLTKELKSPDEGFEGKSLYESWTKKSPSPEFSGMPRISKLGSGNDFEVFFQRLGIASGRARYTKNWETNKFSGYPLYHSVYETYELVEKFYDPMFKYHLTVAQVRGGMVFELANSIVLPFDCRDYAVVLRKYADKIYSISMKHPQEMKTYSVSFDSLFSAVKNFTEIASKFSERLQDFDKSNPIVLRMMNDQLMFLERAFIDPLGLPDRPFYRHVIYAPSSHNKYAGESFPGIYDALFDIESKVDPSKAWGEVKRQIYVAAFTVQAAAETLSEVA
Experimental: After removal of the culture medium, the cells were treated once with 500 μL of HBSS (Hank's balanced salt solution, Biochrom, Berlin, Germany, with addition of 1% bovine serum albumin (BSA)) and left 15 min on ice for equilibration in 200 μL HBSS (1% BSA). […] Quantification of bound and free radioligand was accomplished in a γ-counter.

[6] = biological target: T1, Human Serum Albumin; experiment: HSA binding on Chiralpak HSA column; assay type: in vitro ADME
[7] = cited from earlier work
[8] = pH 7.4, 68Ga-natF-L, n-octanol/PBS pH 7.4
[9] = IC50, natF-L (uncomplexed), 1 h, 4° C., mean ± SD
[10] = IC50, natGa-natF-L, 1 h, 4° C., mean ± SD
[11] = 68Ga-natF-L, 0.5 nM, 37° C., mean ± SD
[12] = pH 7.4, 18F-L, n-octanol/PBS pH 7.4
[13] = 18F-L, 0.5 nM, 37° C., mean ± SD
[14] = 177Lu-natF-L, 0.5 nM, 37° C., mean ± SD
[15] = n-octanol/PBS, pH 7.4, 177Lu-natF-L
[16] = natLu-natF-L, 1 h, 4° C., mean ± SD, read-out: IC50

T1 sequence (P02768 25-609): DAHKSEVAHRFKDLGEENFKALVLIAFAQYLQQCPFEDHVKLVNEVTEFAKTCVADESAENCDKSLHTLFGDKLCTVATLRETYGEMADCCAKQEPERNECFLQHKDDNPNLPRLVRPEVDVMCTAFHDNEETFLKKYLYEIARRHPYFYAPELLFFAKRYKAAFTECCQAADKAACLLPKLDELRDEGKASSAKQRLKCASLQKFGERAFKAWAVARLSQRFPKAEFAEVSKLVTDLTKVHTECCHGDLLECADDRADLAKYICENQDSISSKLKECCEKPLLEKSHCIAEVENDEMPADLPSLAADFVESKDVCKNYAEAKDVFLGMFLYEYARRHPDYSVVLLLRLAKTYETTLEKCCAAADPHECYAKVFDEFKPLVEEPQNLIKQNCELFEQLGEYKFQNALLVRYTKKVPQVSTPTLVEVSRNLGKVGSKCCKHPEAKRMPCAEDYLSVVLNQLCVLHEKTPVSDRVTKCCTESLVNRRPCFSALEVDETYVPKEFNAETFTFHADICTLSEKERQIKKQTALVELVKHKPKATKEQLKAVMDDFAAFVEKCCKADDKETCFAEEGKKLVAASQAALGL

Compound: Nc1ccccc1 [Aniline]
- Log K HSA [1]: −0.79
- Lit. HSA % [2]: 14.06%

Compound: O=C(O)c1ccccc1 [Benzoic Acid]
- Lit. HSA % [2]: 34.27%

Compound: O=C(O)CC[C@H](NC(=O)N[C@@H](CCCCNC(=O)c1ccc(F)nc1)C(=O)O)C(=O)O [DCFPyL, reference compound]
- Internalization ([3]; references): DCFPyL 118 ± 5%

Compound: COc1ccc(Cl)cc1C(=O)NCCc1ccc(S(=O)(=O)NC(=O)NC2CCCCC2)cc1 [Glibenclamide]
- Log K HSA [1]: 1.69
- Lit. HSA % [2]: 99.00%

Compound: Oc1ccccc1 [Phenol]
- Log K HSA [1]: −0.59
- Lit. HSA % [2]: 20.69%

Compound: CCCN(CCC)S(=O)(=O)c1ccc(C(=O)O)cc1 [Probenecid]
- Lit. HSA % [2]: 95.00%

Compound: CC(C)(C)[Si](F)(c1ccc(C(=O)NC[C@@H](NC(=O)CCC(C(=O)O)N2CCN(CC(=O)O)CCN(CC(=O)O)CCN(CC(=O)O)CC2)C(=O)N[C@H](CCCCNC(=O)CCCCCCC(=O)NCCCC[C@H](NC(=O)N[C@@H](CCC(=O)O)C(=O)O)C(=O)O)C(=O)O)cc1)C(C)(C)C (some centres unmarked) [ligand 5, PSMA-SIFA1]
- logD [4, 8]: -2.75 ± 0.07
- IC50 [5, 9]: 6.4 ± 0.2 nM
- IC50 [5, 10]: 7.3 ± 0.2 nM
- Internalization [3, 11]: 33.0 ± 2.1%

Compound: CC(C)(C)[Si](F)(c1ccc(C(=O)NC[C@@H](C(=O)N[C@H](CCCCNC(=O)CCCCCCC(=O)NCCCC[C@H](NC(=O)N[C@@H](CCC(=O)O)C(=O)O)C(=O)O)C(=O)O)n2cc(CNC(=O)CCP(=O)(O)CN3CCN(CP(=O)(O)CCC(=O)O)CCN(CP(=O)(O)CCC(=O)O)CC3)nn2)cc1)C(C)(C)C [ligand 6, PSMA-SIFA2]
- logD [4, 8]: -3 ± 0.09
- IC50 [5, 9]: 8.5 ± 1.7 nM
- IC50 [5, 10]: 10.8 ± 2.5 nM
- Internalization [3, 11]: 43.0 ± 3.4%

Compound: CC(C)(C)[Si](F)(c1ccc(C(=O)N[C@H](CNC(=O)CCC(C(=O)O)N2CCN(CC(=O)O)CCN(CC(=O)O)CCN(CC(=O)O)CC2)C(=O)N[C@H](CCCCNC(=O)CCC(=O)NCCC[C@@H](NC(=O)CC[C@H](NC(=O)N[C@@H](CCC(=O)O)C(=O)O)C(=O)O)C(=O)O)C(=O)O)cc1)C(C)(C)C (some centres unmarked) [ligand 8, PSMA-SIFA4]
- logD [4, 12]: -2.25 ± 0.07
- logD [4, 8]: -2.59 ± 0.04
- logD ([4]; pH 7.4, 177Lu-natF-L, n-octanol/PBS pH 7.4): -3.75 ± 0.06
- IC50 [5, 9]: 2.5 ± 0.2 nM
- IC50 [5, 10]: 3.8 ± 0.7 nM
- IC50 ([5]; IC50, natLu-natF-L, 1 h, 4° C., mean ± SD): 3 ± 0.2 nM
- Internalization [3, 13]: 130.3 ± 5.5%
- Internalization [3, 11]: 98.2 ± 12.4%
- Internalization [3, 14]: 165.9 ± 8.5%
- HSA binding ([6]; natGa-natF-L): 96.5%
- HSA binding ([6]; natLu-natF-L): 97.7%

Compound: CC(C)(C)[Si](F)(c1ccc(C(=O)NC[C@@H](C(=O)N[C@H](CCCCNC(=O)CCC(=O)NCCC[C@@H](NC(=O)CC[C@H](NC(=O)N[C@@H](CCC(=O)O)C(=O)O)C(=O)O)C(=O)O)C(=O)O)n2cc(CNC(=O)CCP(=O)(O)CN3CCN(CP(=O)(O)CCC(=O)O)CCN(CP(=O)(O)CCC(=O)O)CC3)nn2)cc1)C(C)(C)C [ligand 9, PSMA-SIFA5]
- logD [4, 12]: -2.23 ± 0.07
- logD [4, 8]: -3.26 ± 0.06
- IC50 [5, 9]: 4.3 ± 0.2 nM
- IC50 [5, 10]: 4.5 ± 0.3 nM
- Internalization [3, 13]: 211.6 ± 5.3%
- Internalization [3, 11]: 176.9 ± 11.7%
- HSA binding ([6]; natGa-natF-L): 95.1%

Compound: CC(C)(C)[Si](F)(c1ccc(C(=O)NCC(NC(=O)CN2CCN(CC(=O)O)CCN(CC(=O)O)CCN(CC(=O)O)CC2)C(=O)NC(CCCCNC(=O)CCC(=O)NCCCC(NC(=O)CC[C@H](NC(=O)N[C@@H](CCC(=O)O)C(=O)O)C(=O)O)C(=O)O)C(=O)O)cc1)C(C)(C)C (some centres unmarked) [ligand 10]
- logD [4, 15]: -3.59 ± 0.05
- IC50 [5, 16]: 2.8 ± 0.7 nM
- Internalization [3, 14]: 184.1 ± 16%
- HSA binding ([6]; natLu-natF-L): 94.0%

Compound: CC(C)(C)[Si](F)(c1ccc(C(=O)NC(CNC(=O)CN2CCN(CC(=O)O)CCN(CC(=O)O)CCN(CC(=O)O)CC2)C(=O)NC(CCCCNC(=O)CCC(=O)NCCCC(NC(=O)CC[C@H](NC(=O)N[C@@H](CCC(=O)O)C(=O)O)C(=O)O)C(=O)O)C(=O)O)cc1)C(C)(C)C (some centres unmarked) [ligand 11]
- logD [4, 15]: -3.62 ± 0.06
- IC50 [5, 16]: 4.8 ± 0.7 nM
- Internalization [3, 14]: 134.5 ± 18.5%
- HSA binding ([6]; natLu-natF-L): 92.4%

Compound: PSMA-1007 [reference compound]
- IC50 ([5]; references, read-out: IC50): 4.2 nM
- Internalization ([3]; references): PSMA-1007 118 ± 4%

Compound: SIFA-Asn(AcNH-β-Glc)-PEG-Tyr^3-octreotate
- log P(ow) [7]: 0.96

Compound: SIFA-Asn(AcNH-β-Glc)-Tyr^3-octreotate
- log P(ow) [7]: 1.23
